This test has as its target human α7 nAChR (Homo sapiens (Human), UniProt P36544). Briefly: Automated patch-clamp electrophysiology functional assay (Assay A), IonFlux HT. The following applies: HEK cell line stably expressing human RIC-3 and human α7, whole-cell population patch, 40 μM acetylcholine. Format: cell-based. As to the method:
The α7 nAChR positive allosteric modulator (PAM) activity of the present compounds may be tested using assays known in the art. The α7 nAChR PAMs described herein have activities in an automated patch-clamp electrophysiology functional assay as described in the examples. The assay was performed using the IonFlux HT in a whole-cell, population patch configuration. See Golden et al. Assay Drug Dev. Technol. (2011) 9:608-619. The compounds were assessed for their ability to modulate the function of the human α7 nAChR stably expressed in a HEK cell line both in the presence, and in the absence of the natural α7 agonist acetylcholine. By performing a series of such measurements at different concentrations, the effective concentration of the α7 nAChR PAMs (EC50) was determined. See Spencer et al. Assay Drug Dev. Technol. (2012) 10:313-324.
Automated patch-clamp electrophysiology was performed using the IonFlux HT (Fluxion Biosciences Inc., San Francisco, Calif.) in the whole-cell, population patch configuration. Test compounds were assessed for their ability to modulate the function of the α7 nicotinic acetylcholine receptor both in the presence, and in the absence of the natural α7 agonist acetylcholine. A HEK cell line stably expressing both human RIC-3 and human α7 (PrecisION hnAChR α7/RIC-3, Eurofins Pharma, St. Charles, Mo.) was cultured in 175 cm^2 triple-layer tissue culture flasks to no more than 90% confluency in DMEM/F-12 growth media supplemented with 10% heat-inactivated fetal bovine serum, 1% non-essential amino acids, 0.625 μg/mL Puromycin, and 400 μg/mL Geneticin. Immediately prior to assay, cells were detached by first aspirating growth media, rinsing with Dulbecco's phosphate buffered saline, and then adding 10 mL of Accutase (Innovative Cell Technologies, San Diego, Calif.) to the flask and then incubating at 37° C. for 5 minutes. Detached cells were then recovered by the addition of 40 mL of CHO-serum-free media supplemented with 25 mM HEPES, and rocked gently in a 50 mL conical tube for 20 minutes prior to patch-clamp assay. After recovery, cells were pelleted by centrifugation at 1,000 RPM for 1 minute in a compact bench top centrifuge; recovery media was aspirated and cells were resuspended in external recording solution (150 mM NaCl, 5 mM KCl, 2 mM CaCl2, 1 mM MgCl2, 10 mM HEPES, 12 mM dextrose) to a density of 5.0×10^6 cells/mL. The cell suspension was added to the cell inlet wells on an IonFlux HT population patch plate which had previously been rinsed and primed with deionized H2O. Test compounds were serially diluted in DMSO and then resuspended to the final test concentration in external recording solution, with, or without 40 μM acetylcholine added to the external recording solution; test compounds were then transferred to the IonFlux HT population patch plate. Internal recording solution (110 mM TrisPO4, 28 mM TrisBase, 0.1 mM CaCl2, 2 mM MgCl2, 11 mM EGTA, 4 mM MgATP) was added to the internal recording solution inlet wells on the IonFlux HT patch plate previously loaded with cells and test compounds, and the plate loaded into the IonFlux HT instrument. A protocol was executed on the IonFlux HT to trap the cells, break into the cells, and establish the whole-cell recording configuration; cells were voltage-clamped at a holding potential of −60 mV for the duration of the experiment, all experiments were conducted at room temperature, and the IonFlux HT injection pressure was 8 psi for solution applications. Upon establishing the whole-cell configuration, external recording solution was perfused into the recording chambers for 120 seconds and then 40 μM acetylcholine was applied for 1 second and immediately washed off with external recording solution for 60 seconds. The 40 μM acetylcholine-evoked α7 current served as the current response to which subsequent test compound effects, in the presence, or in the absence of 40 μM acetylcholine would be quantified relative to. […]
For orientation: Patch clamp records ionic current or voltage across a cell membrane.

Where two headings read alike, the source gives them in different places.

Chain of human α7 nAChR (P36544 23-502): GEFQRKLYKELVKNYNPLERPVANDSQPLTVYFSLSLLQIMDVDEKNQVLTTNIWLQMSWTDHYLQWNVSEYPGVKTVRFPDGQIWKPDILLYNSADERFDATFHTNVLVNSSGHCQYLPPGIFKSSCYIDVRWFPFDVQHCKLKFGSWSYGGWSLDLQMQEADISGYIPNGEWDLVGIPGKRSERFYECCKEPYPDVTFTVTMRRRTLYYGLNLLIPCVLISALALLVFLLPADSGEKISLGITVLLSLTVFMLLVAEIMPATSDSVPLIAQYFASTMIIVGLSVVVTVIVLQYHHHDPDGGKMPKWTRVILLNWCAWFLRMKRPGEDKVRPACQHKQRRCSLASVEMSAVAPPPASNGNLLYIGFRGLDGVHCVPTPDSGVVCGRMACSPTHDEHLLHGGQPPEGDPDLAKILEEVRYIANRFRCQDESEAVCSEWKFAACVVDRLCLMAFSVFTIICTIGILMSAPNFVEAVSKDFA

For the compound `CC(C)c1ccnc(C2CC2c2ccc(S(N)(=O)=O)cc2)c1` (racemic) [Example A11, 4-{trans-2-[4-(Propan-2-yl)pyridin-2-yl]cyclopropyl}benzenesulfonamide], the EC50 (read-out: α7 nAChR EC50) stood at 460 nM and the EC50 (read-out: α7 nAChR Potency) lay within 100 to 500 nM.
As for `CC(C)c1cccc(C2CC2c2ccc(S(N)(=O)=O)cc2)n1` (single isomer, unassigned) [Example 1, 4-{trans-2-[6-(Propan-2-yl)pyridin-2-yl]cyclopropyl}benzenesulfonamide], the EC50 by setting is: (read-out: α7 nAChR EC50) 500 nM; (read-out: α7 nAChR Potency) 100 to 500 nM.
On the same counts, the results for `CC(C)c1cccnc1C1CC1c1ccc(S(N)(=O)=O)cc1` (racemic) [Example A7, 4-{trans-2-[3-(Propan-2-yl)pyridin-2-yl]cyclopropyl}benzenesulfonamide] are 2400 nM and 500 to 5000 nM.
On the same counts, the results for `CC(C)c1ccc(C2C(c3ccc(S(N)(=O)=O)cc3)C2[Si](C)(C)C)cn1` (centres unmarked) [Example B1, 4-{2-[6-(Propan-2-yl)pyridin-3-yl]-3-(trimethylsilyl)cyclopropyl}benzenesulfonamide] are 1600 nM and 500 to 5000 nM.
Regarding `CC1(C)[C@H](c2ccc(S(N)(=O)=O)cc2)[C@H]1c1nccc(-c2cncc(C(F)(F)F)c2)n1` [Example 9, 4-[(1R,3R)-2,2-Dimethyl-3-{4-[5-(trifluoromethyl)pyridin-3-yl]pyrimidin-2-yl}cyclopropyl]benzenesulfonamide], the EC50 (read-out: α7 nAChR EC50) was found to be 1400 nM and the EC50 (read-out: α7 nAChR Potency) was in the range of 500 to 5000 nM.
For the compound `NS(=O)(=O)c1ccc([C@H]2[C@H](c3nccc(-c4cccc(F)c4)n3)C2(F)F)cc1` [Example C6, 4-{(1R,3R)-2,2-Difluoro-3-[4-(3-fluorophenyl)pyrimidin-2-yl]cyclopropyl}benzenesulfonamide], the EC50 is 1600 nM (read-out: α7 nAChR EC50) and 500 to 5000 nM (read-out: α7 nAChR Potency).
For “4-{trans-2-[2-(Pyrrolidin-1-yl)pyrimidin-4-yl]cyclopropyl}benzenesulfonamide [Example D7]”, the EC50 by setting is: (read-out: α7 nAChR EC50) 900 nM; (read-out: α7 nAChR Potency) 500 to 5000 nM.
`CC(C)c1ccc(C2CC2c2ccc(S(N)(=O)=O)cc2)nc1` (single isomer, unassigned) [Example A3, 4-{trans-2-[5-(Propan-2-yl)pyridin-2-yl]cyclopropyl}benzenesulfonamide]: the EC50 reads like this: (read-out: α7 nAChR EC50) 550 nM; (read-out: α7 nAChR Potency) 500 to 5000 nM.
Consider `NS(=O)(=O)c1ccc([C@@H]2C[C@H]2c2cccc(C3CCCC3)n2)cc1` (racemic) [Example A12, 4-[trans-2-(6-Cyclopentylpyridin-2-yl)cyclopropyl]benzenesulfonamide], for which the EC50 (read-out: α7 nAChR Potency) lay in the range of 100 to 500 nM.
As for “4-(trans-2-{2-[Methyl(phenyl)amino]pyrimidin-4-yl}cyclopropyl)benzenesulfonamide [Example D6]”, for the setting “read-out: α7 nAChR Potency”, the EC50 lay in the range of 500 to 5000 nM.
`NS(=O)(=O)c1ccc([C@@H]2C[C@H]2c2ccc(-n3cccn3)nc2)cc1` (racemic) [Example G3, 4-{trans-2-[6-(1H-Pyrazol-1-yl)pyridin-3-yl]cyclopropyl}benzenesulfonamide]: the EC50 (read-out: α7 nAChR EC50) was found to be 870 nM and the EC50 (read-out: α7 nAChR Potency) lay in the range of 500 to 5000 nM.
With `CN(C)c1nccc(C2CC2c2ccc(S(N)(=O)=O)cc2)n1` (racemic) [Example D1, 4-{trans-2-[2-(Dimethylamino)pyrimidin-4-yl]cyclopropyl}benzenesulfonamide], the EC50 (read-out: α7 nAChR EC50) worked out at 2900 nM and the EC50 (read-out: α7 nAChR Potency) was 500 to 5000 nM.
On the same counts, the results for `NS(=O)(=O)c1ccc(C2CC2c2ccnc(Nc3ccccc3)n2)cc1` (racemic) [Example D11, 4-{trans-2-[2-(Phenylamino)pyrimidin-4-yl]cyclopropyl}benzenesulfonamide] are 3300 nM and 500 to 5000 nM.
As to `NS(=O)(=O)c1ccc([C@@H]2C[C@H]2c2nccc(-c3cccc(F)c3)n2)cc1` (single isomer, unassigned) [Example C4, 4-{trans-2-[4-(3-fluorophenyl)pyrimidin-2-yl]cyclopropyl}benzenesulfonamide], the EC50 was 1900 nM (read-out: α7 nAChR EC50) and 500 to 5000 nM (read-out: α7 nAChR Potency).
On to “4-{trans-2-[2-(Benzylamino)pyrimidin-4-yl]cyclopropyl}benzenesulfonamide [Example D3]”, for which the EC50 (read-out: α7 nAChR Potency) is 500 to 5000 nM.
For the compound `NS(=O)(=O)c1ccc([C@@H]2C[C@H]2c2nccc(-c3cncc(C(F)(F)F)c3)n2)cc1` (single isomer, unassigned) [Example C5, 4-(trans-2-{4-[5-(trifluoromethyl)pyridin-3-yl]pyrimidin-2-yl}cyclopropyl)benzenesulfonamide], the EC50 is 3300 nM (read-out: α7 nAChR EC50) and 500 to 5000 nM (read-out: α7 nAChR Potency).
`NS(=O)(=O)c1ccc([C@@H]2C[C@H]2c2cccc(C3CCCC3)n2)cc1` (single isomer, unassigned) [Example A4, 4-[trans-2-(6-Cyclopentylpyridin-2-yl)cyclopropyl]benzenesulfonamide]: for the setting “read-out: α7 nAChR Potency”, the EC50 lay within 500 to 5000 nM.
Take “4-(trans-2-{2-[(4-Fluorophenyl)amino]pyrimidin-4-yl}cyclopropyl)benzenesulfonamide [Example D8]”: the EC50 runs as follows: (read-out: α7 nAChR EC50) 3800 nM; (read-out: α7 nAChR Potency) 500 to 5000 nM.
In the case of `CC(C)c1cnc(C2CC2c2ccc(S(N)(=O)=O)cc2)nc1` (single isomer, unassigned) [Example C1, 4-{trans-2-[5-(Propan-2-yl)pyrimidin-2-yl]cyclopropyl}benzenesulfonamide], the EC50 was 280 nM (read-out: α7 nAChR EC50) and 100 to 500 nM (read-out: α7 nAChR Potency).
On to `CC(C)(C#N)c1ccc([C@@H]2C[C@H]2c2ccc(S(N)(=O)=O)cc2)cn1` (racemic) [Example G5, 4-{trans-2-[6-(2-Cyanopropan-2-yl)pyridin-3-yl]cyclopropyl}benzenesulfonamide], for which the EC50 is, setting by setting: (read-out: α7 nAChR EC50) 3400 nM; (read-out: α7 nAChR Potency) 500 to 5000 nM.
On to `CC(C)c1cc(C2CC2c2ccc(S(N)(=O)=O)cc2)ccn1` (racemic) [Example E1, 4-{trans-2-[2-(Propan-2-yl)pyridin-4-yl]cyclopropyl}benzenesulfonamide], for which the EC50 (read-out: α7 nAChR Potency) lay within 500 to 5000 nM.
Take `NS(=O)(=O)c1ccc(C2CC2c2ccc(C3CCCC3)cn2)cc1` (single isomer, unassigned) [Example 4, 4-[trans-2-(5-Cyclopentylpyridin-2-yl)cyclopropyl]benzenesulfonamide]: the EC50 by setting is: (read-out: α7 nAChR EC50) 1000 nM; (read-out: α7 nAChR Potency) 500 to 5000 nM.
For “4-{trans-2-[2-(Cyclopentylamino)pyrimidin-4-yl]cyclopropyl}benzenesulfonamide [Example D2]”, the EC50 runs as follows: (read-out: α7 nAChR EC50) 2200 nM; (read-out: α7 nAChR Potency) 500 to 5000 nM.
In the case of `NS(=O)(=O)c1ccc(C2CC2c2ccnc(-c3ccccc3)n2)cc1` (racemic) [Example D9, 4-[trans-2-(2-Phenylpyrimidin-4-yl)cyclopropyl]benzenesulfonamide], for the setting “read-out: α7 nAChR Potency”, the EC50 lay within 500 to 5000 nM.
For the compound `NS(=O)(=O)c1ccc([C@@H]2C[C@H]2c2ccc(N3CCCC3)nc2)cc1` (relative stereo) [Example 6, 4-{trans-2-[6-(Pyrrolidin-1-yl)pyridin-3-yl]cyclopropyl}benzenesulfonamide], the EC50 reads like this: (read-out: α7 nAChR EC50) 720 nM; (read-out: α7 nAChR Potency) 500 to 5000 nM.
Take `NS(=O)(=O)c1ccc([C@@H]2C[C@H]2c2cccc(-n3cccn3)n2)cc1` (racemic) [Example A8, 4-{trans-2-[6-(1H-Pyrazol-1-yl)pyridin-2-yl]cyclopropyl}benzenesulfonamide]: the EC50 (read-out: α7 nAChR EC50) was determined as 3300 nM and the EC50 (read-out: α7 nAChR Potency) lay in the range of 500 to 5000 nM.
Consider `CC(C)c1cnc(C2CC2c2ccc(S(N)(=O)=O)cc2)nc1` (racemic) [Example C2, 4-{trans-2-[5-(Propan-2-yl)pyrimidin-2-yl]cyclopropyl}benzenesulfonamide], for which the EC50 (read-out: α7 nAChR Potency) lay within 500 to 5000 nM.
